Measurements as given in patent US20240102016A1, “APPLICATION OF VEGFR GENE EXPRESSION INHIBITOR IN PREPARING PREPARATION OR AS PREPARATION FOR TREATING PSORIASIS” (priority 2022, published 2024).

How the values were obtained:
Format in all cases: in vivo
[1] = test system: RASGRP1 downstream pathway; assay: Western blot of RASGRP1 downstream pathway proteins in skin tissues of psoriatic mice; conditions: skin smeared with SU5205; compared with the IMQ-induced mice
Excerpt: (§1) In the embodiment of the disclosure, psoriatic mice coated with VEGFR inhibitors are constructed as follows: dissolving the VEGFR inhibitor SU5205 in dimethyl sulfoxide (DMSO) solution to prepare stock solution, diluting the stock solution with cyclodextrin, and coating the stock solution with a concentration of […] (referred to a daily dosage per kilogram of body weight of the psoriatic mice) on the psoriatic mice. 7-8-week wild-type mice are taken with back hair shaved and an exposed skin area of 2 cm×2 cm. 150 μL of the VEGFR inhibitor solution is coated on the skin surface. The normal control mice are coated with control reagent (with 150 μL of DMSO and cyclodextrin). The psoriatic mice and the normal control mice are respectively coated with Imiquimod (IMQ) cream or control reagent VAS on the exposed skin in 4 h later of the above operation.
In the embodiment of the disclosure, the psoriatic mice subcutaneously injected with VEGF are constructed as follows: dissolving VEGF165 protein in DMSO solution to prepare stock solution, diluting the stock solution with cyclodextrin, and smearing the mice with the stock solution with a concentration of […]. 7-8-week wild-type mice are taken with back hair shaved and an exposed skin area of 2 cm×2 cm. 100 μL of the VEGF165 solution is injected subcutaneously the skin surface of the mice. The normal control mice are injected with control reagent subcutaneously (with 100 μL of DMSO and cyclodextrin). The psoriatic mice subcutaneously injected with VEGF165, and the normal control mice are respectively smeared IMQ cream or control reagent VAS on the exposed skin in 4 h later of the injections.

[2] = test system: RASGRP1+T cells and IL-17A+T cells; assay: Flow cytometry of RASGRP1+T cells and IL-17A+T cells in skin tissues of psoriatic mice; conditions: skin smeared with SU5205
Excerpt: as §1
(§2) In the embodiment of the disclosure, the psoriatic mice subcutaneously injected with VEGF are constructed as follows: dissolving VEGF165 protein in DMSO solution to prepare stock solution, diluting the stock solution with cyclodextrin, and smearing the mice with the stock solution with a concentration of […]. 7-8-week wild-type mice are taken with back hair shaved and an exposed skin area of 2 cm×2 cm. 100 μL of the VEGF165 solution is injected subcutaneously the skin surface of the mice. […]

[3] = test system: IMQ-induced psoriatic mice; assay: H&E staining of skin sections and PASI scores in IMQ-induced psoriatic mice; conditions: skin smeared with SU5205, 10 kg/kg/d, 150 μL, 4 h before IMQ cream; compared with the IMQ-induced mice
Excerpt: as §1, §2

O=C1Nc2ccccc2/C1=C/c1ccc(F)cc1 [SU5205]
active protein level of IL-1β in skin tissues [1]: significantly lower | active protein level of NF-κB in skin tissues [1]: significantly reduced | active protein level of phosphorylated AKT in skin tissues [1]: significantly reduced | IL-17A+T cells in skin tissues [2]: decrease significantly | Rasgrp1+T cells in skin tissues [2]: decrease significantly | psoriasis phenotypes (dorsal skin thickness, erythema, scaling; H&E staining and PASI scores) [3]: significantly reduced
